Measured values reported in patent US6727264B1 (Synaptic Pharmaceutical Corporation, priority 2001, dated 2004).

These compounds were tested against rat MCH-1 (Rattus norvegicus, UniProt P97639) (assay: Radioligand binding assay at cloned rat MCH1 receptor ([3H] Compound A)). Conditions: cloned rat MCH1 receptor, membranes from Peakr293 cells, 0.08 nM [3H] Compound A; read-out: Ki (nM) rMCH1.
rat MCH-1, sequence (P97639 whole entry): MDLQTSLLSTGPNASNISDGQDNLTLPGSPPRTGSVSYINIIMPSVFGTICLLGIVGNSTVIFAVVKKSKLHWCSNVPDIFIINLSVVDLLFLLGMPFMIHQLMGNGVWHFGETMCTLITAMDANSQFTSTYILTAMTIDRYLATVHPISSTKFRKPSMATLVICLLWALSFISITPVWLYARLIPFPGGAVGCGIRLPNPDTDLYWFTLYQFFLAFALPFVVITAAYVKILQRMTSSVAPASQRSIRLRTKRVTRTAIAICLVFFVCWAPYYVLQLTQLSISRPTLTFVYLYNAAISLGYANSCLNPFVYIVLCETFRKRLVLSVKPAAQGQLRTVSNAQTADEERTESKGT
Set-up: host or cells: Peak rapid 293 (Peakr293) cells, transient calcium phosphate transfection, membranes
CC(C)C(=O)Nc1cccc(C2CCN(CCC(=O)c3ccc4c(c3)CCC4)CC2)c1 [Example 120] showed a Ki of 31.1 nM. CC(=O)c1cccc(O[C@@H](CCN2CCC(c3ccc(C)c(NC(=O)C(C)C)c3)CC2)c2ccccc2)c1 [Example 273] showed a Ki of 196 nM. With CC(C)C(=O)Nc1cccc(C2CCN(C[C@@H](C)COc3cccc(Br)c3)CC2)c1 [Example 371] the Ki was 163 nM. With CC(C)C(=O)Nc1cccc(C2CCN(C[C@H](C)COc3ccccc3F)CC2)c1 [Example 362] the Ki was 281 nM. For CC(C)C(=O)Nc1cccc(C2CCN(CCC(Oc3cccc(Cl)c3)c3ccc(F)cc3)CC2)c1 (centres unmarked) [Example 143], the Ki was 8.7 nM. For CC(C)C(=O)Nc1cccc(C2CCN(CCC(=O)c3ccc(F)cc3)CC2)c1 [Example 123], the Ki was 450 nM. Compound CC(C)C(=O)Nc1cccc(C2CCN(Cc3c(Br)cnn3Cc3ccc(Cl)cc3)CC2)c1 [Example 204] has a Ki of 39.8 nM. With CC(C)C(=O)Nc1cccc(C2CCN(Cc3cn(-c4ccccc4)c4ccccc34)CC2)c1 [Example 93] the Ki was 4.2 nM. In the case of CC(C)C(=O)Nc1cccc(C2CCN(Cc3cccc(Oc4ccc(Cl)c(Cl)c4)c3)CC2)c1 [Example 206], the Ki is reported as 17.7 nM. Cc1onc(-c2ccccc2Cl)c1C(=O)OCCCN1CCC(c2cccc(NC(=O)C(C)C)c2)CC1 [Example 289, 3-{4-[3-(ISOBUTYRYLAMINO)PHENYL]-1-PIPERIDINYL}PROPYL 3-(2-CHLOROPHENYL)-5-METHYL-4-ISOXAZOLECARBOXYLATE] gave a Ki of 31.8 nM. Work on COc1ccc(C(CCN2CCC(c3cccc(NC(=O)C(C)C)c3)CC2)Oc2ccc(Br)cc2)cc1 (centres unmarked) [Example 181] yielded a Ki of 91.9 nM. Work on CC(C)C(=O)Nc1cccc(C2CCN(CCC(Oc3ccccc3)c3ccc(Cl)cc3)CC2)c1 (centres unmarked) [Example 180] yielded a Ki of 9.7 nM. In the case of CC(C)C(=O)Nc1cccc(C2CCN(CCC(Oc3cccc(F)c3)c3ccc(F)cc3)CC2)c1 (centres unmarked) [Example 140], the Ki is reported as 27.4 nM. In the case of CC(C)C(=O)Nc1cccc(C2CCN(CCCOC(=O)Cc3ccc(F)cc3)CC2)c1 [Example 286], the Ki is reported as 67.8 nM. COc1ccc2[nH]cc(CCCN3CCC(c4cccc(NC(=O)C(C)C)c4)CC3)c2c1 [Example 95] was tested, and the Ki was 5.4 nM. In the case of CC(C)C(=O)Nc1cccc(C2CCN(Cc3ccc(-c4ccccc4)cc3)CC2)c1 [Example 260], the Ki is reported as 77.7 nM. For Cc1ccc(C(=O)CCN2CCC(c3cccc(NC(=O)C(C)C)c3)CC2)cc1 [Example 122], the Ki was 85.1 nM.

Same assay, conditions: cloned rat MCH1 receptor; 0.08 nM [3H] Compound A; Peakr293 cell membranes; read-out: Ki (nM) rMCH1
Compound CCC(=O)Nc1cccc(C2CCN(CCCCC(=O)c3ccccc3C(F)(F)F)CC2)c1 [Example 559] has a Ki of 62.3 nM. CC(C)C(=O)Nc1cccc(C2CCN(CCCCC(Oc3cc(C(F)(F)F)ccc3F)c3ccc(Cl)cc3)CC2)c1 (centres unmarked) [Example 934] gave a Ki of 12.3 nM. CC(C)C(=O)Nc1cccc(C2CCN(CCCc3c(-c4cccc(Br)c4)[nH]c4ccc(OC(F)(F)F)cc34)CC2)c1 [Example 751] gave a Ki of 12.4 nM. In the case of CC(C)C(=O)Nc1cccc(C2CCN(CCCCC(Oc3ccc(Cl)cc3)c3ccccc3)CC2)c1 (centres unmarked) [Example 921], the Ki is reported as 6.8 nM. CC(C)C(=O)Nc1cccc(C2CCN(Cc3ccc(C(=O)c4ccccc4)cc3)CC2)c1 [Example 807] showed a Ki of 2.7 nM. CC(=O)c1cccc(OC(CCCCN2CCC(c3cccc(NC(=O)C(C)C)c3)CC2)c2ccc(Cl)cc2)c1 (centres unmarked) [Example 933] gave a Ki of 10.9 nM. CC(C)C(=O)Nc1cccc(C2CCN(Cc3c[nH]c4ccc(Br)cc34)CC2)c1 [Example 526] was tested, and the Ki was 411 nM. In the case of COc1cccc(-n2ccc3cc(CN4CCC(c5cccc(NC(=O)C(C)C)c5)CC4)ccc32)c1 [Example 839], the Ki is reported as 62.2 nM. In the case of CC(C)C(=O)Nc1cccc(C2CCN(CCCCCC(Oc3ccc(Cl)cc3)c3ccccc3)CC2)c1 (centres unmarked) [Example 904], the Ki is reported as 14.2 nM. With CC(C)C(=O)Nc1cccc(C2CCN(CCCc3c(-c4ccc([N+](=O)[O-])cc4)n(-c4ccccc4)c4ccccc34)CC2)c1 [Example 789] the Ki was 36.4 nM. CCC(=O)Nc1ccc(C2CCN(CCC(c3ccccc3)c3ccccc3)CC2)cc1 [Example 799] was tested, and the Ki was 371 nM. For CC(C)C(=O)Nc1cccc(C2CCN(CCCC(=O)c3ccc(Br)cc3)CC2)c1 [Example 947], the Ki was 4.3 nM. For CC(C)C(=O)Nc1cccc(C2CCN(CCCc3c(-c4cccc(I)c4)n(-c4ccccc4)c4ccccc34)CC2)c1 [Example 739], the Ki was 214 nM. Work on CC(C)C(=O)Nc1cccc(C2CCN(CCCCC(Oc3cc(C(F)(F)F)ccc3F)c3ccccc3F)CC2)c1 (centres unmarked) [Example 931] yielded a Ki of 9.6 nM. Cc1ccccc1-n1ccc2cc(CN3CCC(c4cccc(NC(=O)C(C)C)c4)CC3)ccc21 [Example 847] showed a Ki of 10.2 nM. Work on Cc1ccc(-n2ccc3cc(CN4CCC(c5cccc(NC(=O)C(C)C)c5)CC4)ccc32)cc1 [Example 848] yielded a Ki of 19.1 nM. With Cc1ccc2[nH]c(-c3ccc(Cl)cc3)c(CCCN3CCC(c4cccc(NC(=O)C(C)C)c4)CC3)c2c1 [Example 720] the Ki was 12.5 nM. Work on CC(C)C(=O)Nc1cccc(C2CCN(CCCCCC(Oc3cc(C(F)(F)F)ccc3F)c3ccc(Cl)cc3)CC2)c1 (centres unmarked) [Example 914] yielded a Ki of 17.3 nM. In the case of CC(C)C(=O)Nc1cccc(C2CCN(CCCCCC(Oc3cc(C(F)(F)F)ccc3F)c3cccc(F)c3)CC2)c1 (centres unmarked) [Example 915], the Ki is reported as 22.6 nM. O=C(CCCCN1CCC(c2cccc(NC(=O)C3CC3)c2)CC1)c1ccccc1F [Example 563] gave a Ki of 50.2 nM. With CC(C)C(=O)Nc1cccc(C2CCN(Cc3cn(-c4ccccc4F)c4ccccc34)CC2)c1 [Example 439] the Ki was 8.5 nM. CC(C)C(=O)Nc1cccc(C2CCN(Cc3cn(-c4cccc(Cl)c4)c4ccccc34)CC2)c1 [Example 458] showed a Ki of 15.3 nM. For Cc1cccc2c(CCCN3CCC(c4cccc(NC(=O)C(C)C)c4)CC3)c(-c3ccccc3Br)[nH]c12 [Example 783], the Ki was 18 nM. Compound COc1ccccc1OC(CCCCCN1CCC(c2cccc(NC(=O)C(C)C)c2)CC1)c1ccccc1F (centres unmarked) [Example 891] has a Ki of 6.5 nM. With CC(C)C(=O)Nc1cccc(C2CCN(Cc3ccc4c(ccn4-c4ccccc4-c4ccccc4)c3)CC2)c1 [Example 846] the Ki was 18.4 nM. Work on CC(C)C(=O)Nc1cccc(C2CCN(CCCCC(Oc3ccc(F)cc3)c3ccc(F)cc3)CC2)c1 (centres unmarked) [Example 926] yielded a Ki of 1.4 nM. In the case of O=C(CCCCN1CCC(c2cccc(NC(=O)C3CC3)c2)CC1)c1ccc(F)cc1 [Example 551], the Ki is reported as 21.6 nM. In the case of CC(=O)c1ccccc1OC(CCCCCN1CCC(c2cccc(NC(=O)C(C)C)c2)CC1)c1ccccc1F (centres unmarked) [Example 910], the Ki is reported as 10.1 nM. CC(C)C(=O)Nc1cccc(C2CCN(CCCCCC(Oc3cc(C(F)(F)F)ccc3F)c3ccccc3)CC2)c1 (centres unmarked) [Example 916] showed a Ki of 20.2 nM. Compound CCOc1ccc(NC(=O)NCCCN2CCC(c3cccc(NC(=O)C(C)C)c3)CC2)cc1 [Example 617] has a Ki of 609 nM. In the case of CC(C)C(=O)Nc1cccc(C2CCN(CCc3cn(C)c4ccccc34)CC2)c1 [Example 410], the Ki is reported as 263 nM. Work on CC(C)C(=O)Nc1cccc(C2CCN(CCCCC(Oc3cc(C(F)(F)F)ccc3F)c3cccc(F)c3)CC2)c1 (centres unmarked) [Example 932] yielded a Ki of 9.4 nM. CC(C)C(=O)Nc1cccc(C2CCN(Cc3cccc4c3ccn4-c3ccc(F)cc3)CC2)c1 [Example 836] gave a Ki of 7.8 nM. In the case of O=C(CCCN1CCC(c2cccc(NC(=O)C3CC3)c2)CC1)c1ccc(F)cc1 [Example 548], the Ki is reported as 126 nM. CC(C)C(=O)Nc1cccc(C2CCN(C(C)CCC(=O)c3ccccc3)CC2)c1 (centres unmarked) [Example 570] was tested, and the Ki was 136 nM. Work on CCC(=O)Nc1cccc(C2CCN(CCCCC(=O)c3cccc([N+](=O)[O-])c3)CC2)c1 [Example 552] yielded a Ki of 24.7 nM. Cc1ccc2[nH]c(-c3cccc(I)c3)c(CCCN3CCC(c4cccc(NC(=O)C(C)C)c4)CC3)c2c1 [Example 742] showed a Ki of 1.4 nM. With CC(C)C(=O)Nc1cccc(C2CCN(CCCc3c(-c4ccc(I)cc4)[nH]c4ccc(OC(F)(F)F)cc34)CC2)c1 [Example 744] the Ki was 47.1 nM. CCC(=O)Nc1cccc(C2CCN(Cc3cn(-c4ccccc4)c4ccccc34)CC2)c1 [Example 464] gave a Ki of 84.1 nM. In the case of CC(C)C(=O)Nc1cccc(C2CCN(CC[C@H](NS(=O)(=O)c3ccc(C(C)(C)C)cc3)c3ccccc3)CC2)c1 [Example 599], the Ki is reported as 50 nM. Work on CC(C)C(=O)Nc1cccc(C2CCN(CC[C@H](NS(=O)(=O)c3ccc(F)c(F)c3)c3ccccc3)CC2)c1 [Example 592] yielded a Ki of 186 nM. CC(C)C(=O)Nc1cccc(C2CCN(CCC[S+]([O-])c3ccc(F)cc3)CC2)c1 (centres unmarked) [Example 590] gave a Ki of 157 nM. With CC(C)C(=O)Nc1cccc(C2CCN(CCCNC(=O)c3cccnc3Oc3ccc(Cl)cc3)CC2)c1 [Example 641] the Ki was 14.2 nM. Compound CC(C)C(=O)Nc1cccc(C2CCN(CC[C@H](NS(=O)(=O)c3cc(Cl)ccc3Cl)c3ccccc3)CC2)c1 [Example 600] has a Ki of 41.3 nM. With CCC(=O)Nc1cccc(C2CCN(CCCCCCSc3ccccc3)CC2)c1 [Example 588] the Ki was 284 nM. CC(C)C(=O)Nc1cccc(C2CCN(Cc3cn(-c4ccc(F)cc4)c4cc(Cl)ccc34)CC2)c1 [Example 471] was tested, and the Ki was 4.3 nM. Work on Cc1cccc2c(CCCN3CCC(c4cccc(NC(=O)C(C)C)c4)CC3)c(-c3ccc(F)cc3)[nH]c12 [Example 716] yielded a Ki of 4.5 nM. In the case of O=C(CCCCN1CCC(c2cccc(NC(=O)C3CC3)c2)CC1)c1ccc([N+](=O)[O-])cc1 [Example 557], the Ki is reported as 25.6 nM. Work on CC(C)C(=O)Nc1cccc(C2CCN(Cc3ccc(C(C)(C)C)cc3)CC2)c1 [Example 806] yielded a Ki of 14.1 nM. For Cc1cccc2c(CCCN3CCC(c4cccc(NC(=O)C(C)C)c4)CC3)c(-c3cccc(I)c3)[nH]c12 [Example 743], the Ki was 4.1 nM. CC(C)C(=O)Nc1cccc(C2CCN(CCCCC(Oc3ccc(Cl)cc3)c3ccc(F)cc3)CC2)c1 (centres unmarked) [Example 937] gave a Ki of 28.4 nM. Work on CC(C)C(=O)Nc1cccc(C2CCN(CCCCC(O)c3ccc(C(F)(F)F)cc3)CC2)c1 (centres unmarked) [Example 810] yielded a Ki of 191 nM. Compound CC(C)C(=O)Nc1cccc(C2CCN(CCCCNC(=O)C(c3ccccc3)c3ccccc3)CC2)c1 [Example 653] has a Ki of 48.8 nM. With COC(=O)c1sccc1S(=O)(=O)NCCCN1CCC(c2cccc(NC(=O)C(C)C)c2)CC1 [Example 603, METHYL 3-{[(3-{4-[3-(ISOBUTYRYLAMINO)PHENYL]-1-PIPERIDINYL}PROPYL)AMINO]SULFONYL}-2-THIOPHENECARBOXYLATE] the Ki was 287 nM.
